Tests used:
Format in all cases: in vivo
[1] = tested on: barnyardgrass (Echinachloa crus-galli, ECC); assay: Post-emerge test, barnyardgrass; conditions: 250 g ai/ha, 14 days after application, rating scale 0-100 (0 no damage, 100 complete death)
Text: (§1) A standard greenhouse herbicide activity screening system was used to evaluate the herbicidal efficacy and crop safety of these test compounds. Seven broadleaf weed species including redroot pigweed (Amaranthus retroflexus, AMR), velvetleaf (Abutilon theophrasti, ABT), sicklepod (Cassia obtusifolia, CAO), ivyleaf morningglory (Ipomoea hederacea, IPH), lambsquarters (Chenopodium album, CHA), common ragweed (Ambrosia artemisiifolia L., AML), and cocklebur (Xanthium strumariunt, XAS) were used as test species. Four grass weed species including green foxtail (Setaria viridis, SEV), barnyardgrass (Echinachloa crus-galli, ECC), johnsongrass (Sorghum halepense, SOH), and large crabgrass (Digitaria sanguinalis, DIS) were also used. In addition, four crop species, field corn (Zea mays L., var. Dekalb 535, CORN), soybean (Glycine max L., var. Pella 86, SOY), upland rice (Oryza sp., var.Tebonnet, RICE), and wheat (Triticum aestivum) were included all plants were grown in 10 cm square plastic pots which were filled with a sandy loam soil mix.
(§2) For pre-emerge tests, seeds were planted one day prior to application of the test compounds. All test compounds were dissolved in acetone and applied to the test pots in a volume of 187 l/ha. Test materials were applied at rates ranging from 8 g ai/ha to 1000 g ai/ha using a track sprayer equipped with a TJ8001E even flow flat fan spray nozzle. This application simulates a typical commercial field herbicide application.
(§3) For post-emerge tests, seeds were planted 8-21 days prior to the test to allow emergence and good foliage development prior to application of the test substances. At the time of the post-emerge application, plants of all species were usually at the 2-3 leaf stage of development. In the postemerge test, a commercial non-ionic surfactant was also included (0.25% v/v) to enhance wetting of the leaf surfaces of target plants.
(§4) At 14 days after application of the test materials, phytotoxicity ratings were recorded. A rating scale of 0-100 was used for both pre and post emerge tests as previously described in Research Methods in Weed Science, 2nd edition, B, Truelove, Ed., Southern Weed Science Society, Auburn University, Auburn, Ala., 1977. Briefly, “0” corresponds to no damage and “100” corresponds to complete death of all plants in the test unit. This scale was used both to determine efficacy against weed species and damage to crop species. Herbicide activity data for various compounds of this invention, which are shown by compound No. in Tables 1-3, are shown in Tables 5 and 6.

[2] = tested on: field corn (Zea mays L., var. Dekalb 535, CORN); assay: Post-emerge test, crop damage field corn; conditions: post-emerge, 250 g ai/ha, 14 days after application, rating scale 0-100 (0 no damage, 100 complete death)
Text: as §1, §2, §3, §4

[3] = tested on: wheat (Triticum aestivum); assay: Post-emerge test, crop damage wheat; conditions: post-emerge, 250 g ai/ha, 14 days after application, rating scale 0-100 (0 no damage, 100 complete death)
Text: as §1, §2, §3, §4

[4] = tested on: cocklebur (Xanthium strumariunt, XAS); assay: Pre-emerge test, cocklebur; conditions: 250 g ai/ha, 14 days after application, rating scale 0-100 (0 no damage, 100 complete death)
Text: as §1, §2, §4

[5] = tested on: barnyardgrass (Echinachloa crus-galli, ECC); assay: Pre-emerge test, barnyardgrass; conditions: 250 g ai/ha, 14 days after application, rating scale 0-100 (0 no damage, 100 complete death)
Text: as §1, §2, §4

[6] = tested on: ivyleaf morningglory (Ipomoea hederacea, IPH); assay: Pre-emerge test, ivyleaf morningglory; conditions: 250 g ai/ha, 14 days after application, rating scale 0-100 (0 no damage, 100 complete death)
Text: as §1, §2, §4

[7] = tested on: field corn (Zea mays L., var. Dekalb 535, CORN); assay: Pre-emerge test, crop damage field corn; conditions: pre-emerge, 250 g ai/ha, 14 days after application, rating scale 0-100 (0 no damage, 100 complete death)
Text: as §1, §2, §4

[8] = tested on: large crabgrass (Digitaria sanguinalis, DIS); assay: Pre-emerge test, large crabgrass; conditions: 250 g ai/ha, 14 days after application, rating scale 0-100 (0 no damage, 100 complete death)
Text: as §1, §2, §4

[9] = tested on: green foxtail (Setaria viridis, SEV); assay: Pre-emerge test, green foxtail; conditions: 250 g ai/ha, 14 days after application, rating scale 0-100 (0 no damage, 100 complete death)
Text: as §1, §2, §4

[10] = tested on: soybean (Glycine max L., var. Pella 86, SOY); assay: Post-emerge test, crop damage soybean; conditions: post-emerge, 250 g ai/ha, 14 days after application, rating scale 0-100 (0 no damage, 100 complete death)
Text: as §1, §2, §3, §4

[11] = tested on: upland rice (Oryza sp., var.Tebonnet, RICE); assay: Post-emerge test, crop damage upland rice; conditions: post-emerge, 250 g ai/ha, 14 days after application, rating scale 0-100 (0 no damage, 100 complete death)
Text: as §1, §2, §3, §4

[12] = tested on: johnsongrass (Sorghum halepense, SOH); assay: Post-emerge test, johnsongrass; conditions: 250 g ai/ha, 14 days after application, rating scale 0-100 (0 no damage, 100 complete death)
Text: as §1, §2, §3, §4

[13] = tested on: wheat (Triticum aestivum); assay: Pre-emerge test, crop damage wheat; conditions: pre-emerge, 250 g ai/ha, 14 days after application, rating scale 0-100 (0 no damage, 100 complete death)
Text: as §1, §2, §4

[14] = tested on: lambsquarters (Chenopodium album, CHA); assay: Post-emerge test, lambsquarters; conditions: 250 g ai/ha, 14 days after application, rating scale 0-100 (0 no damage, 100 complete death)
Text: as §1, §2, §3, §4

[15] = tested on: lambsquarters (Chenopodium album, CHA); assay: Pre-emerge test, lambsquarters; conditions: 250 g ai/ha, 14 days after application, rating scale 0-100 (0 no damage, 100 complete death)
Text: as §1, §2, §4

[16] = tested on: velvetleaf (Abutilon theophrasti, ABT); assay: Pre-emerge test, velvetleaf; conditions: 250 g ai/ha, 14 days after application, rating scale 0-100 (0 no damage, 100 complete death)
Text: as §1, §2, §4

[17] = tested on: common ragweed (Ambrosia artemisiifolia L., AML); assay: Post-emerge test, common ragweed; conditions: 250 g ai/ha, 14 days after application, rating scale 0-100 (0 no damage, 100 complete death)
Text: as §1, §2, §3, §4

[18] = tested on: sicklepod (Cassia obtusifolia, CAO); assay: Post-emerge test, sicklepod; conditions: 250 g ai/ha, 14 days after application, rating scale 0-100 (0 no damage, 100 complete death)
Text: as §1, §2, §3, §4

[19] = tested on: common ragweed (Ambrosia artemisiifolia L., AML); assay: Pre-emerge test, common ragweed; conditions: 250 g ai/ha, 14 days after application, rating scale 0-100 (0 no damage, 100 complete death)
Text: as §1, §2, §4

[20] = tested on: soybean (Glycine max L., var. Pella 86, SOY); assay: Pre-emerge test, crop damage soybean; conditions: pre-emerge, 250 g ai/ha, 14 days after application, rating scale 0-100 (0 no damage, 100 complete death)
Text: as §1, §2, §4

[21] = tested on: cocklebur (Xanthium strumariunt, XAS); assay: Post-emerge test, cocklebur; conditions: 250 g ai/ha, 14 days after application, rating scale 0-100 (0 no damage, 100 complete death)
Text: as §1, §2, §3, §4

[22] = tested on: redroot pigweed (Amaranthus retroflexus, AMR); assay: Post-emerge test, redroot pigweed; conditions: 250 g ai/ha, 14 days after application, rating scale 0-100 (0 no damage, 100 complete death)
Text: as §1, §2, §3, §4

[23] = tested on: sicklepod (Cassia obtusifolia, CAO); assay: Pre-emerge test, sicklepod; conditions: 250 g ai/ha, 14 days after application, rating scale 0-100 (0 no damage, 100 complete death)
Text: as §1, §2, §4

[24] = tested on: ivyleaf morningglory (Ipomoea hederacea, IPH); assay: Post-emerge test, ivyleaf morningglory; conditions: 250 g ai/ha, 14 days after application, rating scale 0-100 (0 no damage, 100 complete death)
Text: as §1, §2, §3, §4

[25] = tested on: large crabgrass (Digitaria sanguinalis, DIS); assay: Post-emerge test, large crabgrass; conditions: 250 g ai/ha, 14 days after application, rating scale 0-100 (0 no damage, 100 complete death)
Text: as §1, §2, §3, §4

[26] = tested on: green foxtail (Setaria viridis, SEV); assay: Post-emerge test, green foxtail; conditions: 250 g ai/ha, 14 days after application, rating scale 0-100 (0 no damage, 100 complete death)
Text: as §1, §2, §3, §4

[27] = tested on: johnsongrass (Sorghum halepense, SOH); assay: Pre-emerge test, johnsongrass; conditions: 250 g ai/ha, 14 days after application, rating scale 0-100 (0 no damage, 100 complete death)
Text: as §1, §2, §4

[28] = tested on: velvetleaf (Abutilon theophrasti, ABT); assay: Post-emerge test, velvetleaf; conditions: 250 g ai/ha, 14 days after application, rating scale 0-100 (0 no damage, 100 complete death)
Text: as §1, §2, §3, §4

[29] = tested on: upland rice (Oryza sp., var.Tebonnet, RICE); assay: Pre-emerge test, crop damage upland rice; conditions: pre-emerge, 250 g ai/ha, 14 days after application, rating scale 0-100 (0 no damage, 100 complete death)
Text: as §1, §2, §4

[30] = tested on: redroot pigweed (Amaranthus retroflexus, AMR); assay: Pre-emerge test, redroot pigweed; conditions: 250 g ai/ha, 14 days after application, rating scale 0-100 (0 no damage, 100 complete death)
Text: as §1, §2, §4

Compound	Post-emerge Herbicidal Activity ECC (phytotoxicity rating) [1]	Post-emerge crop damage CORN (phytotoxicity rating) [2]	Post-emerge crop damage WHEAT (phytotoxicity rating) [3]	Pre-emerge Herbicidal Activity XAS (phytotoxicity rating) [4]	Pre-emerge Herbicidal Activity ECC (phytotoxicity rating) [5]	Pre-emerge Herbicidal Activity IPH (phytotoxicity rating) [6]	Pre-emerge crop damage CORN (phytotoxicity rating) [7]	Pre-emerge Herbicidal Activity DIS (phytotoxicity rating) [8]	Pre-emerge Herbicidal Activity SEV (phytotoxicity rating) [9]	Post-emerge crop damage SOY (phytotoxicity rating) [10]	Post-emerge crop damage RICE (phytotoxicity rating) [11]	Post-emerge Herbicidal Activity SOH (phytotoxicity rating) [12]	Pre-emerge crop damage WHEAT (phytotoxicity rating) [13]	Post-emerge Herbicidal Activity CHA (phytotoxicity rating) [14]	Pre-emerge Herbicidal Activity CHA (phytotoxicity rating) [15]	Pre-emerge Herbicidal Activity ABT (phytotoxicity rating) [16]	Post-emerge Herbicidal Activity AML (phytotoxicity rating) [17]	Post-emerge Herbicidal Activity CAO (phytotoxicity rating) [18]	Pre-emerge Herbicidal Activity AML (phytotoxicity rating) [19]	Pre-emerge crop damage SOY (phytotoxicity rating) [20]	other results
CC1Oc2cc(F)c(-c3nn(C)c(C(F)(F)F)c3Cl)c3c2N(C1=O)C(C(C)C)C(=O)N3 (mixture of isomers) [1-53]	70	5	10	100	95	95	25	98	99	20	0	0	15	100	100	100	75	50	95	50	Post-emerge Herbicidal Activity XAS (phytotoxicity rating) [21]: 100; Post-emerge Herbicidal Activity AMR (phytotoxicity rating) [22]: 100; Pre-emerge Herbicidal Activity CAO (phytotoxicity rating) [23]: 100; Post-emerge Herbicidal Activity IPH (phytotoxicity rating) [24]: 100; Post-emerge Herbicidal Activity DIS (phytotoxicity rating) [25]: 0; Post-emerge Herbicidal Activity SEV (phytotoxicity rating) [26]: 60; Pre-emerge Herbicidal Activity SOH (phytotoxicity rating) [27]: 90; Post-emerge Herbicidal Activity ABT (phytotoxicity rating) [28]: 100; Pre-emerge crop damage RICE (phytotoxicity rating) [29]: 5; Pre-emerge Herbicidal Activity AMR (phytotoxicity rating) [30]: 100
CC(C)C1C(=O)Nc2c(N3C(=O)C4=C(CCCC4)C3=O)c(F)cc3c2N1C(=O)CO3 (stereo not drawn) [1-78]	0	0	50	0	0	25	0	0	0	10	60	0	0	99	70	10	70	0	0	0	Post-emerge Herbicidal Activity XAS (phytotoxicity rating) [21]: 80; Post-emerge Herbicidal Activity AMR (phytotoxicity rating) [22]: 60; Pre-emerge Herbicidal Activity CAO (phytotoxicity rating) [23]: 15; Post-emerge Herbicidal Activity IPH (phytotoxicity rating) [24]: 75; Post-emerge Herbicidal Activity DIS (phytotoxicity rating) [25]: 0; Post-emerge Herbicidal Activity SEV (phytotoxicity rating) [26]: 0; Pre-emerge Herbicidal Activity SOH (phytotoxicity rating) [27]: 0; Post-emerge Herbicidal Activity ABT (phytotoxicity rating) [28]: 0; Pre-emerge crop damage RICE (phytotoxicity rating) [29]: 0; Pre-emerge Herbicidal Activity AMR (phytotoxicity rating) [30]: 20
